# Laboratory results from ChEMBL document CHEMBL1137946, “Synthesis and biological evaluation of (-)-laulimalide analogues” (Bioorg Med Chem Lett, 2004).
# Experiments:
# HT-29 = assay: In vitro growth inhibitory activity against HT-29 human colon cancer cell line; type: functional, cell-based
# MDA-MB-435 = assay: In vitro growth inhibitory activity against MDA-MB-435 human breast cancer cell line; type: functional, cell-based
Compound,IC50 (HT-29) [nM],IC50 (MDA-MB-435) [nM]
C=C1C[C@H](C)C[C@@H]2CC=C[C@@H](C/C=C/C(=O)O[C@H]([C@@H](O)/C=C/[C@@H]3CC(C)=CCO3)C/C=C/[C@@H](O)C1)O2,8500,2760
C=C1C[C@H](C)C[C@@H]2CC=C[C@@H](CCCC(=O)O[C@H]([C@H](/C=C/[C@@H]3CC(C)=CCO3)OC)C[C@@H]3O[C@H]3[C@@H](O)C1)O2,> 1000,> 1000
C=C1C[C@H](C)C[C@@H]2CC=C[C@@H](C/C=C\C(=O)O[C@H]([C@@H](O)/C=C/[C@@H]3CC(C)=CCO3)C[C@@H]3O[C@H]3[C@@H](OC(C)=O)C1)O2,,23
C=C1C[C@H](C)C[C@@H]2CC=C[C@@H](C/C=C\C(=O)O[C@H]([C@H](/C=C/[C@@H]3CC(C)=CCO3)OC(C)=O)C[C@@H]3O[C@H]3[C@@H](O)C1)O2,,91
C=C1C[C@H](C)C[C@@H]2CC=C[C@@H](C/C=C\C(=O)O[C@H]([C@@H](O)/C=C/[C@@H]3CC(C)=CCO3)C/C=C/[C@@H](O)C1)O2,960,289
C=C1C[C@H](C)C[C@@H]2CC=C[C@@H](C/C=C\C(=O)O[C@H]([C@@H](O)/C=C/[C@@H]3CC(C)=CCO3)C[C@@H]3O[C@H]3[C@@H](OC)C1)O2,,> 1000
C=C1C[C@H](C)C[C@@H]2CC=C[C@@H](C/C=C\C(=O)O[C@H]([C@@H](O)/C=C/[C@@H]3CC(C)=CCO3)C[C@H]3O[C@@H]3[C@H](OC(=O)c3ccc([N+](=O)[O-])cc3)C1)O2,,> 1000
C=C1C[C@H](C)C[C@@H]2CC=C[C@@H](C/C=C\C(=O)O[C@H]([C@H](/C=C/[C@@H]3CC(C)=CCO3)O[Si](C)(C)C(C)(C)C)C[C@@H]3O[C@H]3[C@@H](O)C1)O2,,> 1000
C=C1C[C@H](C)C[C@@H]2CC=C[C@@H](C/C=C\C(=O)O[C@H]([C@@H](O)/C=C/[C@@H]3CC(C)=CCO3)C/C=C/[C@H](O)C1)O2,2700,790
C=C1C[C@H](C)C[C@@H]2CC=C[C@@H](C/C=C\C(=O)O[C@H]([C@H](/C=C/[C@@H]3CC(C)=CCO3)OC(C)=O)C[C@@H]3O[C@H]3[C@@H](OC(C)=O)C1)O2,,289
C=C1CC(=N\OC)/C=C/C[C@@H]([C@@H](O)/C=C/[C@@H]2CC(C)=CCO2)OC(=O)/C=C\C[C@@H]2C=CC[C@@H](C[C@@H](C)C1)O2,,> 1000
C=C1C[C@H](C)C[C@@H]2CC=C[C@@H](C/C=C\C(=O)O[C@H]([C@@H](O)/C=C/[C@@H]3CC(C)=CCO3)C[C@@H]3O[C@H]3[C@H](OC(=O)OC)C1)O2,,422
C=C1C[C@H](C)C[C@@H]2CC=C[C@@H](CC#CC(=O)O[C@H]([C@H](/C=C/[C@@H]3CC(C)=CCO3)OC)C[C@@H]3O[C@H]3[C@@H](O)C1)O2,> 1000,> 1000
C=C1C[C@H](C)C[C@@H]2CC=C[C@@H](C/C=C\C(=O)O[C@H]([C@@H](O)/C=C/[C@@H]3CC(C)=CCO3)C[C@@H]3O[C@H]3[C@H](OC(=O)c3ccc([N+](=O)[O-])cc3)C1)O2,,37
C=C1C[C@H](C)C[C@@H]2CC=C[C@@H](C/C=C\C(=O)O[C@H]([C@@H](O)/C=C/[C@@H]3CC(C)=CCO3)C[C@@H]3O[C@H]3[C@H](OC(=O)N(C)C)C1)O2,,601
C=C1C[C@H](C)C[C@@H]2CC=C[C@@H](C/C=C\C(=O)O[C@H]([C@@H](O)/C=C/[C@@H]3CC(C)=CCO3)C[C@H]3O[C@@H]3[C@H](O)C1)O2,,176
C=C1CC(=O)/C=C/C[C@@H]([C@@H](O)/C=C/[C@@H]2CC(C)=CCO2)OC(=O)/C=C\C[C@@H]2C=CC[C@@H](C[C@@H](C)C1)O2,,> 1000
C=C1C[C@H](C)C[C@@H]2CC=C[C@@H](C/C=C\C(=O)O[C@H]([C@H](/C=C/[C@@H]3CC(C)=CCO3)OC)C[C@@H]3O[C@H]3[C@@H](O)C1)O2,590,242
C=C1C[C@H](C)C[C@@H]2CC=C[C@@H](C/C=C/C(=O)O[C@H]([C@@H](O)/C=C/[C@@H]3CC(C)=CCO3)C/C=C/[C@H](O)C1)O2,9600,4300
C=C1C[C@H](C)C[C@@H]2CC=C[C@@H](C/C=C\C(=O)O[C@H]([C@@H](O)/C=C/[C@@H]3CC(C)=CCO3)C[C@@H]3O[C@H]3[C@@H](O)C1)O2 [FIJIANOLIDE B],6.9,2.3
